Experimental data: patent US20030055106A1, “Therapeutic uses of peroxometallic compounds” (priority 1999, published 2003)

Key:
[1] = test system: air pouch exudates (leukocyte recruitment, pro-inflammatory mediators); assay: Murine air pouch model, L. major intra-pouch injection; assay type: in vivo, BALB/c mice
Experimental: FIG. 6: Neutrophils, eosinophils and MØ recruited in air pouch exudates of bpV(phen)-treated BALB/c mice in response to L. major promastigotes intra-pouch injection. Air pouch exudates were collected from animals injected with endotoxin-free PBS, LPS (20 μg/ml), L. major and bpV(phen) (500 nM i.p., 2 hour)+L. major, 6 hr post-inoculation. Each time point represents the mean±SD (n=4 mice) of 2 experiments similarly performed.
FIG. 7: In vivo Leishmania-induced pro-inflammatory mediator generations in pV-treated mice. (A) Nitrate level determination in air pouch exudates collected 6 hr post-inoculation of endotoxin-free PBS, L. major and bpV(phen) followed by L. major has been performed. Values are the mean±SEM of 2 experiments performed independently. (B) Evaluation of pro-inflammatory cytokines (IL-6 and IL-1β) and chemokines (MCP-1 and MIP-2) secreted in air pouch exudates collected as described above were measured by ELISA as described in more detail below. Values are the mean±SEM of 2 experiments performed independently. […] IL-6, IL-1β, MCP-1 and MIP-2 secretion were respectively 12.8-, 2-, 8- and 6.8-time more secreted in L. major -injected bpV(phen)-treated animals compared to L. major alone. PBS control was equal to background.
With the use of a murine air pouch model, we investigated early inflammatory events that occur following L. major skin injection in bpV(phen)-treated animals (FIG. 6).
In parallel to this experiment, in vivo generation of Leishmania-induced NO and pro-inflammatory mediators in bpV(phen)-treated mice were measured in air pouch exudates (FIG. 7).

[2] = test system: Leishmania major; assay: Leishmania vaccination trial (adjuvant); design: species or system BALB/c mice; conditions: in vivo, Leishmania infection
Experimental: FIG. 10: Use of bpV(phen) as an adjuvant in Leishmania vaccination trial. BALB/c mice were inoculated with soluble Leishmania major antigen (SLA; 100 μg) with or without daily injection of bpV(phen) ([…]) for 5 days. Two weeks later animals received a second set of treatment as above. Control animals received either PBS or bpV(phen) alone without any SLA. At 4 weeks post-vaccination, animals were challenged with 5 million Leishmania major stationary phase promastigotes injected in the right hind footpad. Progression of infection was followed by measuring footpad thickness with a caliper on a weekly basis. Differences measured for reduced footpad thickness were significant (p<0.01, Student's t test, n=5-10 animals per group) over their respective controls.
In the past, use of total and soluble Leishmania antigen (SLA) for vaccination has been reported and permitted some levels of protection against infectious challenges (85). Using a murine model, we have tested whether bpV(phen)-modulated cytokine and chemokine generation (as reported above) in combination with SLA administration could lead to protection against Leishmania infection. Mice have received PBS and bpv(phen) as controls, and SLA (100 μg) with or without daily bpV(phen) injection (500 nM, 5 days). All injections were done intra-peritoneally. […]

[3] = test system: HUVECs; assay: HUVEC differentiation and organization into tubular-like structures in fibrin matrix; assay type: cell-based, Human; conditions: 21 days in culture
Experimental: Alternatively, HUVECs cultured in a fibrin matrix can form 3-dimensional tubular-like structures in the presence of serum (103). This assay was performed in the presence of either bpV(phen), bpv(pic) or vanadate to assess the influence of each one of these compounds on HUVEC differentiation and organization (Table 1). HUVECs were seeded on the bottom of gelatin-coated wells at high density to provide a confluent monolayer at 48 hours.
Then, 50 000 HUVECs/ml were embedded in fibrinogen solution prior to polymerization. The fibrin matrix was covered with culture medium containing the molecule to be tested, while culture medium without any of these molecules served as controls. Cell behavior was observed periodically by phase contrast microscopy.

[4] = test system: Rat aorta rings; assay: Rat aortic ring assay (cell/microvessel migration in fibrin gel); assay type: cell-based
Source text: FIG. 3: Micrographs of the cell migration from aortic rings embedded in fibrin (×12).
FIG. 4: Quantification of the cell migration from aortic rings in the presence of orthovanadate (plain bars); bpV(phen) (light gray bars); and bpV(pic) (dark gray bars). The control appears as an empty bar. Means and standard errors of the means are presented.
Rat aorta rings were embedded in fibrin matrix as previously described (107). Thoracic aortas excised from adult rats were rinsed in Hank's balanced salt solution (HBSS), and cleansed of periadventitial. One-mm long aortic rings were sectioned and rinsed in culture medium. Each of the aortic rings were then embedded in fibrin gel matrix. Migration of microvessels in fibrin gel was quantified by measuring the distance from the external surface of rat aortic rings towards the migrating vessels. Measurements were performed at day 15 by digitizing morphometry with a NIH image analysis system (FIGS. 3 and 4).

[5] = L. major-injected bpV(phen)-treated animals, 6 hr, ELISA
[6] = bpV(phen)-treated + L. major, 6 hr

O.O.O.OO.OO.[K+].[OH-].[V].c1cnc2c(c1)ccc1cccnc12 [bpV(phen), potassium bisperoxo(1,10-phenanthroline)oxovanadate]
NO generation (nitrate level) in air pouch exudates in response to L. major infection ([1]; 6 hr post-inoculation): enhanced generation | IL-1β secretion in air pouch exudates, compared to L. major alone [1, 5]: 2 time | IL-6 secretion in air pouch exudates, compared to L. major alone [1, 5]: 12.8 time | MCP-1 secretion in air pouch exudates, compared to L. major alone [1, 5]: 8 time | MIP-2 secretion in air pouch exudates, compared to L. major alone [1, 5]: 6.8 time | recruitment of cells in air pouch exudates ([1]; bpV(phen) 500 nM i.p., 2 hour + L. major 10^7 parasites/ml, 6 hours post-injection, vs L. major alone): five times greater | recruited leukocytes that were eosinophils [1, 6]: 18% | recruited leukocytes that were macrophages [1, 6]: 12% | recruited leukocytes that were neutrophils [1, 6]: ~70% | protection against infectious challenge (adjuvant potential) [2]: complete protection | structures observed by phase contrast microscopy ([3]; 1 μM): cord-like structures (or cords), tube-like structures (or tubes) and stellate structures (or Stell.struct.) were observed | structures observed by phase contrast microscopy ([3]; 2 and 3.5 μM): fragmented cord-like structures were apparent | cell migration from aortic rings ([4]; 1 μM, compared to control): impaired | cell migration from aortic rings ([4]; 3.5 μM): strong inhibition
